{"source": "PubChem BioAssay AID1053172", "about": "(The Scripps Research Institute Molecular Screening Center, 2014)", "note": "The source made the active and inactive calls. How the calls were made is not given here.", "data": [{"target": "HIV-1 integrase / human LEDGF/p75 complex", "test": "inhibitors of HIV-1 IN-LEDGF/p75 DNA integration, dose response, biochemical, TR-FRET (AID 1053172)", "values": [{"smiles": "O=C(O)c1ccc(-n2cccc2/C=C2/NC(=O)N(c3ccccc3)C2=O)cc1", "IC50": "2850 nM"}, {"smiles": "Cc1ccc(-c2csc(NS(=O)(=O)c3cccc(F)c3)n2)o1", "IC50": "inactive"}, {"smiles": "O=C(O)c1cccc2cccc(-c3c4ccc(=O)c(O)c-4oc4c(O)c(O)ccc34)c12", "IC50": "369 nM"}, {"smiles": "Cc1cc(/C=C2\\C(=O)NC(=O)N(c3ccccc3F)C2=O)c(C)n1-c1cc(C(=O)O)cc(C(=O)O)c1", "IC50": "815 nM"}, {"smiles": "Oc1ccc(NCc2ccccc2OCc2ccccc2)cc1", "IC50": "> 36500 nM (inactive)"}, {"smiles": "C=C(C)C(=O)Nc1cccc(C2=NOC3(C2)C[C@@H](C(N)=O)N(C(=O)/C(C)=C/C)C3)c1", "note": "(some centres not stated)", "IC50": "3250 nM"}, {"smiles": "Cc1nc2ccccc2c(=O)n1/N=C/c1ccc(O)c(O)c1O", "IC50": "2450 nM"}, {"smiles": "O=C(O)c1ccc(-n2cccc2/C=C2/NC(=O)N(c3cccc(Cl)c3)C2=O)cc1", "IC50": "4250 nM"}, {"smiles": "Cc1sc2nc(SCC(=O)c3ccc(O)c(O)c3)n(C)c(=O)c2c1C", "IC50": "3630 nM"}, {"smiles": "O=C1NC(=S)NC(=O)C1=Cc1cccn1-c1ccc(O)cc1", "IC50": "2210 nM"}, {"smiles": "CC1(C)OC(C)(C)/C(=C/Nc2ccc(O)cc2)C1=O", "IC50": "inactive"}, {"smiles": "O=c1c(O)c(-c2ccc(O)c(O)c2)oc2cc(O)cc(O)c12", "IC50": "498 nM"}, {"smiles": "c1coc(-c2ccc3nncn3c2)c1", "IC50": "1180 nM"}, {"smiles": "O=c1cc(-c2ccc(O)c(O)c2)oc2c(C3O[C@H](CO)[C@@H](O)[C@H](O)[C@H]3O)c(O)cc(O)c12", "note": "(some centres not stated)", "IC50": "1260 nM"}, {"smiles": "C=CC(=O)N1C/C(=C/c2ccc(F)cc2)C(=O)/C(=C\\c2ccc(F)cc2)C1", "IC50": "inactive"}, {"smiles": "O=C(O)C(Cc1ccccc1)N1C(=O)/C(=C/C=C/c2ccco2)SC1=S", "note": "(configuration not stated)", "IC50": "2740 nM"}, {"smiles": "COCCCNC(=O)/C(C#N)=C/c1ccc(OCC(=O)O)c(OC)c1", "IC50": "5280 nM"}, {"smiles": "COc1ccc(NS(=O)(=O)c2ccc3c(c2)[C@H]2C=CC[C@H]2[C@@H](c2ccc(C(=O)O)cc2)N3)cc1", "IC50": "2120 nM"}, {"smiles": "O=C1/C(=C/C=C/c2ccco2)SC(=S)N1c1ccc(O)cc1", "IC50": "2660 nM"}, {"smiles": "C=C(C)C(=O)Nc1cccc(C2=NOC3(C2)C[C@@H](C(N)=O)N(C(=O)/C=C/C=C/C)C3)c1", "note": "(some centres not stated)", "IC50": "3250 nM"}, {"smiles": "O=C(O)c1ccc(-n2c(-c3cc(-c4ccco4)[nH]n3)n[nH]c2=S)cc1", "IC50": "7320 nM"}, {"smiles": "Oc1ccc(NCc2cccc(OCc3ccccc3)c2)cc1", "IC50": "> 36500 nM (inactive)"}, {"smiles": "C/C(=N/NC(=O)c1cc(O)c(O)c(O)c1)c1ccc([N+](=O)[O-])cc1", "IC50": "2120 nM"}, {"smiles": "O=C1NC(=Nc2ccc(O)cc2)S/C1=C\\C=C\\c1ccco1", "IC50": "4080 nM"}, {"smiles": "CCCNC1=C(C)C(=O)C2=C(C1=O)C(COC(N)=O)[C@]1(OC)C3NC3CN21", "note": "(some centres not stated)", "IC50": "inactive"}, {"smiles": "C=C1c2cccc(O)c2C(=O)C2C(=O)[C@]3(O)C(=O)C(C(N)=O)C(=O)[C@@H](N(C)C)[C@@H]3[C@@H](O)[C@H]12", "note": "(some centres not stated)", "IC50": "4760 nM"}, {"smiles": "N#Cc1c(NC(=O)CSc2ncnc3sccc23)oc(-c2ccco2)c1-c1ccco1", "IC50": "inactive"}, {"smiles": "O=C(Cc1cnn(-c2ccccc2)c1)c1ccc(O)c(O)c1O", "IC50": "> 36500 nM (inactive)"}, {"smiles": "Nc1ccc2nc3c(=O)[nH]c(=S)[nH]c3nc2c1", "IC50": "1360 nM"}, {"smiles": "COCCN(CCOC)Cc1c(O)ccc2c1O/C(=C\\c1ccco1)C2=O", "IC50": "> 12200 nM (inactive)"}, {"smiles": "O=C(NN1C(=O)/C(=C/c2ccc(O)c(O)c2)SC1=S)c1ccccc1", "IC50": "1800 nM"}, {"smiles": "COc1ccc2[nH]c3c(C)c4cc[n+](C)cc4c(C)c3c2c1", "IC50": "5110 nM"}, {"smiles": "CN(C)[C@@H]1C(=O)C(C(N)=O)=C(O)[C@@]2(O)C(=O)C3=C(O)c4c(O)cccc4[C@@](C)(O)C3[C@H](O)C12", "note": "(some centres not stated)", "IC50": "inactive"}, {"smiles": "O=C(O)c1cccc(-n2cccc2/C=C2/NC(=O)N(c3ccc(Cl)cc3)C2=O)c1", "IC50": "794 nM"}, {"smiles": "C=CC1=C(C(=O)O)N2C(=O)[C@@H](NC(=O)/C(=N/OCC(=O)O)c3csc(N)n3)[C@H]2SC1", "IC50": "287 nM"}, {"smiles": "O=C1NC(=Nc2ccccc2)S/C1=C\\C=C\\c1ccco1", "IC50": "4380 nM"}, {"smiles": "CCN(CC)CCCNc1ccc2ncn3c4ccc(O)cc4c(=O)c1c23", "IC50": "> 36500 nM (inactive)"}, {"smiles": "O=C1/C(=C\\c2ccc(O)c(O)c2)C(c2ccccc2)=NN1c1ccccc1", "IC50": "inactive"}, {"smiles": "C=CCn1c(C)cc(C(=O)Cn2ncc(Cl)c(Cl)c2=O)c1C", "IC50": "inactive"}, {"smiles": "CC1OC(OCC2OC(Oc3c(-c4ccc(O)cc4)oc4cc(O)cc(O)c4c3=O)C(O)C(O)C2O)C(O)C(O)C1O", "note": "(configuration not stated)", "IC50": "8680 nM"}, {"smiles": "C=CCn1c(SCC(=O)c2ccc(O)c(O)c2)nnc1-c1cccnc1", "IC50": "2380 nM"}, {"smiles": "COc1cc(/C=C(\\C#N)C(=O)c2ccc(O)c(O)c2)cc(I)c1O", "IC50": "752 nM"}, {"smiles": "Oc1ccc(/C=N/N=C/c2ccc(O)c(O)c2)cc1O", "IC50": "191 nM"}, {"smiles": "O=c1[nH]c2cc3c(cc2cc1CN(Cc1cccnc1)Cc1nnnn1Cc1ccco1)OCCO3", "IC50": "inactive"}, {"smiles": "N#Cc1c(SCC(=O)Nc2nccs2)sc2c(O)cc(=O)[nH]c12", "IC50": "8630 nM"}, {"smiles": "CN(CCC#N)C(=O)COC(=O)c1c2c(nc3ccccc13)/C(=C\\c1ccco1)CC2", "IC50": "2560 nM"}, {"smiles": "CCN(CC)c1ccc(N=C2C=CC(=O)C=C2NC(C)=O)cc1", "IC50": "> 36600 nM (inactive)"}, {"smiles": "CC(=O)Nc1ccc(C(=O)/C=C/c2ccco2)cc1", "IC50": "9780 nM"}, {"smiles": "O=C(NCCCO)c1ccc2nc(-c3ccco3)c(-c3ccco3)nc2c1", "IC50": "2850 nM"}, {"smiles": "O=c1c(O)c(-c2ccc(O)c(O)c2)oc2cc(O)ccc12", "IC50": "378 nM"}, {"smiles": "CC1(C)OC(=O)C(=Cc2ccc(-c3ccc(Cl)c(C(=O)O)c3)o2)C(=O)O1", "IC50": "7910 nM"}, {"smiles": "O=C(O)C1Nc2c(O)cccc2C2C=CCC12", "note": "(configuration not stated)", "IC50": "754 nM"}]}]}
